Measured values taken from a flash point compilation (Sun et al. 2020).

`C=CC[Si](OCC)(OCC)OCC` [ALLYLTRIETHOXYSILANE] gave a flash point of 47.00 °C. Work on `CCO[Si](CCCNCCN)(OCC)OCC` [N-(2-AMINOETHYL)-3-AMINOPROPYLTRIETHOXYSILANE] yielded a flash point of 148.00 °C. `C=CC[Si](Cl)(Cl)c1ccccc1` [ALLYLPHENYLDICHLOROSILANE] showed a flash point of 76.00 °C. Compound `CC(=O)OCC[Si](C)(Cl)Cl` [ACETOXYETHYLMETHYLDICHLOROSILANE] has a flash point of 65.00 °C. Compound `C[Si](C)(C)CCCN` [3-AMINOPROPYLTRIMETHYLSILANE] has a flash point of 59.00 °C. With `CO[Si](OC)(OC)c1cccc(N)c1` [m-AMINOPHENYLTRIMETHOXYSILANE] the flash point was 180.00 °C. `CO[Si](CCCN)(OC)OC` [3-AMINOPROPYLTRIMETHOXYSILANE] showed a flash point of 83.00 °C. `C=CCO[Si](C)(C)C(C)(C)C` [ALLYLOXY-t-BUTYLDIMETHYLSILANE] showed a flash point of 32.00 °C. In the case of `CC(=O)OCC[Si](C)(C)Cl` [ACETOXYETHYLDIMETHYLCHLOROSILANE], the flash point is reported as 63.00 °C. `C=CC(=O)OC[Si](OC)(OC)OC` [ACRYLOXYMETHYLTRIMETHOXYSILANE] showed a flash point of 62.00 °C. With `C[Si](C)(C)CN=[N+]=[N-]` [(AZIDOMETHYL)TRIMETHYLSILANE] the flash point was 6.00 °C. For `C=CCN[Si](C)(C)C` [ALLYLAMINOTRIMETHYLSILANE], the flash point was 10.00 °C. Work on `C=CC[SiH](Cl)Cl` [ALLYLDICHLOROSILANE] yielded a flash point of -4.00 °C. `C=CC(=O)OCCC[Si](OC)(OC)OC` [(3-ACRYLOXYPROPYL)TRIMETHOXYSILANE] gave a flash point of 123.00 °C. With `CO[Si](CCCNCCN)(OC)OC` [N-(2-AMINOETHYL)-3-AMINOPROPYLTRIMETHOXYSILANE] the flash point was 150.00 °C. Work on `C=CCNCCC[Si](OC)(OC)OC` [3-(N-ALLYLAMINO)PROPYLTRIMETHOXYSILANE] yielded a flash point of 88.00 °C. Work on `C=CC[Si](C)(C)CCl` [ALLYL(CHLOROMETHYL)DIMETHYLSILANE] yielded a flash point of 27.00 °C. For `CC(=O)[Si](C)(C)C` [ACETYLTRIMETHYLSILANE], the flash point was 8.00 °C. Compound `C[Si](C)(Cl)Cc1ccccc1` [BENZYLDIMETHYLCHLOROSILANE] has a flash point of 73.00 °C. With `COCN(Cc1ccccc1)C[Si](C)(C)C` [N-BENZYL-N-METHOXYMETHYL-N-(TRIMETHYLSILYLMETHYL)AMINE] the flash point was 66.00 °C. For `C=CC[Si](Cl)(Cl)Cl` [ALLYLTRICHLOROSILANE], the flash point was 31.00 °C. Work on `COCCOCCO[Si](CCCN)(OCCOCCOC)OCCOCCOC` [3-AMINOPROPYLTRIS(METHOXYETHOXYETHOXY)SILANE] yielded a flash point of 68.00 °C. In the case of `C=CC(=O)OCCC[Si](O[Si](C)(C)C)(O[Si](C)(C)C)O[Si](C)(C)C` [(3-ACRYLOXYPROPYL)TRIS(TRIMETHYLSILOXY)SILANE], the flash point is reported as 93.00 °C. In the case of `C=CC(=O)OCCC[Si](C)(C)OC` [(3-ACRYLOXYPROPYL)DIMETHYLMETHOXYSILANE], the flash point is reported as 85.00 °C. With `CCO[Si](CCCN)(OCC)OCC` [3-AMINOPROPYLTRIETHOXYSILANE] the flash point was 104.00 °C. Compound `C=CC[Si](C(C)C)(C(C)C)C(C)C` [ALLYLTRIISOPROPYLSILANE] has a flash point of 76.00 °C. With `C=CC[Si](Cl)(Cl)CCCCl` [ALLYL(3-CHLOROPROPYL)DICHLOROSILANE] the flash point was 76.00 °C. In the case of `CCO[Si](CCOC(C)=O)(OCC)OCC` [ACETOXYETHYLTRIETHOXYSILANE], the flash point is reported as 99.00 °C. With `CC(=O)O[Si](C)(C)C` [ACETOXYTRIMETHYLSILANE] the flash point was 4.00 °C. Work on `C=CC[Si](C)(C)c1ccc(OC)cc1` [ALLYL(4-METHOXYPHENYL)DIMETHYLSILANE] yielded a flash point of 102.00 °C. `C=CC[Si](C)(C)C` [ALLYLTRIMETHYLSILANE] showed a flash point of 7.00 °C.

Remark: another data set of the same source
For `CC(C)c1cccc(C(C)C)c1` [1,3-diisopropylbenzene], the flash point was 76 °C. `CCCc1ccccc1` [propylbenzene] gave a flash point of 47 °C.

Remark: another data set of the same source
With `CCCCCCCCCCCCCC` [Tetradecane] the flash point was 109.2 °C.

Remark: another data set of the same source
`CCCCCCCCCCCl` [1-Chlorodecane] gave a flash point of 83.1 °C. `CCCCCCCCCCC(C)Cl` (stereo not given) [2-Chlorododecane] gave a flash point of 99.6 °C. Compound `CCCCCC(C)Cl` (stereo not given) [2-Chloroheptane] has a flash point of 39.2 °C. `CCC(Cl)CC` [3-Chloropentane] gave a flash point of 10 °C. `CC(C)(C)C(C)(C)Cl` [2-Chloro-2,3,3-trimethylbutane] gave a flash point of 24.4 °C. `CCC(C)(Cl)CCCC(C)C` (stereo not given) [6-Chloro-2,6-dimethyloctane] gave a flash point of 69 °C. `CCC(C)CCCCCl` (stereo not given) [1-Chloro-5-methylheptane] gave a flash point of 52.6 °C. `CC(C)CCC(C)Cl` (stereo not given) [2-Chloro-5-methylhexane] showed a flash point of 35.2 °C. `CC(C)CC(C)Cl` (stereo not given) [2-Chloro-4-methylpentane] gave a flash point of 21 °C. In the case of `CCCC(C)(Cl)CC` (stereo not given) [3-Chloro-3-methylhexane], the flash point is reported as 33.6 °C. For `CC(C)CCCl` [1-Chloro-3-methylbutane], the flash point was 16.1 °C. In the case of `CCCC(Cl)CCC` [4-Chloroheptane], the flash point is reported as 39.2 °C. `CCCCCCCCCCCCCCCCCCCl` [1-Chlorooctadecane] showed a flash point of 184.1 °C. `CC(C)C(C)(C)Cl` [2-Chloro-2,3-dimethylbutane] showed a flash point of 15.0 °C. In the case of `CCC(Cl)C(C)C` (stereo not given) [3-Chloro-2-methylpentane], the flash point is reported as 21 °C.

Remark: another data set of the same source
In the case of `CCC(C)(C)C(C)C` [2,3,3-Trimethylpentane], the flash point is reported as -0 °C. With `CCC(C)C(C)(C)C(C)C` (stereo not given) [2,3,3,4-Tetramethylhexane] the flash point was 31 °C. `CCC(C)CC(C)C(C)C` (stereo not given) [2,3,5-Trimethylheptane] gave a flash point of 31 °C. `CCC(CC)CC` [3-Ethylpentane] gave a flash point of -18 °C. `CCC(C)(C(C)C)C(C)C` [3-Ethyl-2,3,4-trimethylpentane] gave a flash point of 31 °C. With `CCC(C)C(C)C` (stereo not given) [2,3-Dimethylpentane] the flash point was -15 °C. For `CC(C)C(C)C(C)(C)C` (stereo not given) [2,2,3,4-Tetramethylpentane], the flash point was 11 °C. With `CCC(C)C(C)C(C)C` (stereo not given) [2,3,4-Trimethylhexane] the flash point was 15 °C. `CCC(C)C(C)CC(C)C` (stereo not given) [2,4,5-Trimethylheptane] showed a flash point of 31 °C. `CCCC(C)C(C)CC` (stereo not given) [3,4-Dimethylheptane] gave a flash point of 15 °C. `CC(C)C(C)(C)C` [2,2,3-Trimethylbutane] gave a flash point of -26 °C. Compound `CCCC(C)C(C)(C)C` (stereo not given) [2,2,3-Trimethylhexane] has a flash point of 15 °C. Work on `CCC(C)(CC)C(C)C` [2,3-Dimethyl-3-ethylpentane] yielded a flash point of 15 °C. Work on `CC(C)C` [2-Methylpropane] yielded a flash point of -87 °C. In the case of `CCCCC(CC)CCC` (stereo not given) [4-Ethyloctane], the flash point is reported as 41 °C. Compound `CCCCCCCCCCCCCC` [Tetradecane] has a flash point of 99 °C. With `CCCC(C)C(C)C` (stereo not given) [2,3-Dimethylhexane] the flash point was 10 °C. Compound `CCC(C)CCCC(C)C` (stereo not given) [2,6-Dimethyloctane] has a flash point of 41 °C. Work on `CCCC(CC)C(C)(C)C` (stereo not given) [3-Ethyl-2,2-dimethylhexane] yielded a flash point of 38 °C. With `CC(C)CCC(C)(C)C` [2,2,5-Trimethylhexane] the flash point was 13 °C. `CC(C)(C)CC(C)(C)C` [2,2,4,4-Tetramethylpentane] gave a flash point of 3 °C. `CC(C)CC(C)C(C)C` (stereo not given) [2,3,5-Trimethylhexane] gave a flash point of 15 °C. In the case of `CC(C)(C)CCC(C)(C)C` [2,2,5,5-Tetramethylhexane], the flash point is reported as 31 °C. With `CC(C)(C)C(C)(C)C` [2,2,3,3-Tetramethylbutane] the flash point was -0 °C. For `CCC(C)C(C)C(C)CC` (stereo not given) [3,4,5-Trimethylheptane], the flash point was 31 °C. Compound `CCCC(CC)C(C)CC` (stereo not given) [4-Ethyl-3-methylheptane] has a flash point of 41 °C. Work on `CCC(C)C(C)(C)CC` (stereo not given) [3,3,4-Trimethylhexane] yielded a flash point of 15 °C. In the case of `CCC(C)(C)CC` [3,3-Dimethylpentane], the flash point is reported as -19 °C.

Remark: another data set of the same source
`CCc1ccc(CC)c(C)c1` [1,4-diethyl-2-methylbenzene] gave a flash point of 73.0 °C. For `CCc1cc(C)cc(CC)c1` [1,3-diethyl-5-methylbenzene], the flash point was 70 °C. Compound `CCCc1cccc(C)c1C` [1,2-dimethyl-3-propylbenzene] has a flash point of 72 °C. In the case of `CCC(C)c1ccccc1` (stereo not given) [sec -butylbenzene], the flash point is reported as 52 °C. Compound `CC(C)c1ccccc1` [cumene] has a flash point of 31.1 °C. `CCc1ccc(CC)cc1` [p -diethylbenzene] showed a flash point of 55.1 °C. In the case of `Cc1ccc(C)cc1` [p -xylene], the flash point is reported as 25.1 °C. Work on `CCCc1ccccc1C` [o -propyltoluene] yielded a flash point of 57.8 °C. In the case of `CCCC(C)c1ccccc1` (stereo not given) [sec -pentylbenzene], the flash point is reported as 60.7 °C. Compound `CC(C)c1ccc(C(C)C)cc1` [1,4-diisopropylbenzene] has a flash point of 76.1 °C. `CCCCCC(C)c1ccccc1` (stereo not given) [(1-methylhexyl)benzene] showed a flash point of 87.2 °C. Compound `CCCC(CC)c1ccccc1` (stereo not given) [(1-ethylbutyl)benzene] has a flash point of 74.2 °C. Compound `CCc1ccc(C)c(CC)c1` [1,3-diethyl-4-methylbenzene] has a flash point of 72.2 °C. Work on `CC(C)c1cccc(C(C)C)c1` [1,3-diisopropylbenzene] yielded a flash point of 76.8 °C. `CCC(C)c1ccc(C)cc1C` (stereo not given) [1-sec -butyl-2,4-dimethylbenzene] gave a flash point of 81.4 °C. With `Cc1ccc(C(C)(C)C)cc1` [4-tert -butyltoluene] the flash point was 54.1 °C. Work on `CCc1cc(C)ccc1C` [2-ethyl-p -xylene] yielded a flash point of 56.1 °C. For `Cc1cccc(C(C)(C)C)c1` [1-tert -butyl-3-methylbenzene], the flash point was 60.6 °C. `CCCc1cccc(CC)c1` [1-ethyl-3-propylbenzene] gave a flash point of 69.7 °C. With `CC(C)C(C)c1ccccc1` (stereo not given) [(1,2-dimethylpropyl)benzene] the flash point was 57.0 °C. Compound `CCC(C)c1ccc(C)cc1` (stereo not given) [1-sec -butyl-4-methylbenzene] has a flash point of 65 °C. For `Cc1ccccc1` [toluene], the flash point was 7.1 °C. For `Cc1ccc(C(C)C)c(C)c1` [1,3-dimethyl-4-isopropylbenzene], the flash point was 67.2 °C. With `CCc1ccc(C)cc1` [p -ethyltoluene] the flash point was 36.1 °C. `CCc1cc(CC)cc(CC)c1` [1,3,5-triethylbenzene] gave a flash point of 81.1 °C. Work on `CCCc1ccccc1` [propylbenzene] yielded a flash point of 42.1 °C. `Cc1ccccc1C(C)C` [o -cymene] gave a flash point of 50.1 °C. With `CCc1ccccc1C` [o -ethyltoluene] the flash point was 39.1 °C.
